Results as given in ChEMBL document CHEMBL3885861, “Open TG-GATES”.

Species on record: Rattus norvegicus
Assay: Open TG-GATES - Regimen: Single
Assay type: toxicity, organism-based, Sprague-Dawley
Set-up: regimen Single, gender Male, age 6 weeks
Details: in vivo, po, 0 mg/kg, route gavage, dose level Control; for APTT / Bas / Eos / Fbg / Hb / Ht / Lym / MCH / MCHC / MCV / Mono / Neu / PT / Plat / RBC / Ret / WBC: tissue Blood; for KIDNEY_L / KIDNEY_R / KIDNEY_TOTAL: tissue Kidney; for LIVER: tissue Liver; for A/G / ALP / ALT / AST / BUN / CRE / Ca / Cl / DBIL / GLC / IP / K / LDH / Na / PL / RALB / TBIL / TC / TG / TP / gamma-GTP: tissue Plasma

SMILES: CCCNC(=O)NS(=O)(=O)c1ccc(Cl)cc1 [CHLORPROPAMIDE]
- TERMINAL_BW (3 h): 199.1 g
- APTT (3 h): 16.5 s
- Bas (3 h): 0.4%
- Eos (3 h): 1%
- Fbg (3 h): 290 mg/dL
- Hb (3 h): 13.3 g/dL
- Ht (3 h): 40.3%
- Lym (3 h): 76.2%
- MCH (3 h): 21.1 pg
- MCHC (3 h): 32.9%
- MCV (3 h): 64.1 fL
- Mono (3 h): 3.4%
- Neu (3 h): 17.8%
- PT (3 h): 15.6 s
- Plat (3 h): 118.9 x10_4/uL
- RBC (3 h): 629.8 x10_4/ul
- Ret (3 h): 8.9%
- WBC (3 h): 85.4 x10_2/uL
- KIDNEY_L (3 h): 0.9 g
- KIDNEY_R (3 h): 0.9 g
- KIDNEY_TOTAL (3 h): 1.8 g
- LIVER (3 h): 8.8 g
- A/G (3 h): 0.9
- ALP (3 h): 1444 IU/L
- ALT (3 h): 43.6 IU/L
- AST (3 h): 75.8 IU/L
- BUN (3 h): 10.4 mg/dL
- CRE (3 h): 0.2 mg/dL
- Ca (3 h): 10.9 mg/dL
- Cl (3 h): 106 meq/L
- DBIL (3 h): 0.01 mg/dL
- GLC (3 h): 176.6 mg/dL
- IP (3 h): 8.9 mg/dL
- K (3 h): 4.3 meq/L
- LDH (3 h): 89 IU/L
- Na (3 h): 142.2 meq/L
- PL (3 h): 137.8 mg/dL
- RALB (3 h): 2.5 g/dL
- TBIL (3 h): 0.04 mg/dL
- TC (3 h): 80.2 mg/dL
- TG (3 h): 53.8 mg/dL
- TP (3 h): 5.4 g/dL
- gamma-GTP (3 h): 1.4 IU/L
- TERMINAL_BW (6 h): 194.7 g
- APTT (6 h): 18.3 s
- Bas (6 h): 0.2%
- Eos (6 h): 1%
- Fbg (6 h): 308.8 mg/dL
- Hb (6 h): 13.2 g/dL
- Ht (6 h): 40.5%
- Lym (6 h): 71.2%
- MCH (6 h): 21 pg
- MCHC (6 h): 32.6%
- MCV (6 h): 64.3 fL
- Mono (6 h): 3%
- Neu (6 h): 23.8%
- PT (6 h): 15.4 s
- Plat (6 h): 108.8 x10_4/uL
- RBC (6 h): 630.6 x10_4/ul
- Ret (6 h): 9.2%
- WBC (6 h): 85.6 x10_2/uL
- KIDNEY_L (6 h): 0.9 g
- KIDNEY_R (6 h): 0.9 g
- KIDNEY_TOTAL (6 h): 1.7 g
- LIVER (6 h): 8.2 g
- A/G (6 h): 0.9
- ALP (6 h): 1385.6 IU/L
- ALT (6 h): 42.4 IU/L
- AST (6 h): 74.4 IU/L
- BUN (6 h): 9.4 mg/dL
- CRE (6 h): 0.2 mg/dL
- Ca (6 h): 10.7 mg/dL
- Cl (6 h): 106 meq/L
- DBIL (6 h): 0.01 mg/dL
- GLC (6 h): 174 mg/dL
- IP (6 h): 9.8 mg/dL
- K (6 h): 4.2 meq/L
- LDH (6 h): 63.6 IU/L
- Na (6 h): 143 meq/L
- PL (6 h): 153.4 mg/dL
- RALB (6 h): 2.5 g/dL
- TBIL (6 h): 0.046 mg/dL
- TC (6 h): 90.6 mg/dL
- TG (6 h): 50.6 mg/dL
- TP (6 h): 5.4 g/dL
- gamma-GTP (6 h): 1 IU/L
- TERMINAL_BW (9 h): 194.8 g
- APTT (9 h): 18.5 s
- Bas (9 h): 0%
- Eos (9 h): 0.8%
- Fbg (9 h): 294.6 mg/dL
- Hb (9 h): 12.9 g/dL
- Ht (9 h): 39.6%
- Lym (9 h): 74.4%
- MCH (9 h): 21.3 pg
- MCHC (9 h): 32.8%
- MCV (9 h): 65.1 fL
- Mono (9 h): 2.2%
- Neu (9 h): 21%
- PT (9 h): 15.4 s
- Plat (9 h): 119.1 x10_4/uL
- RBC (9 h): 607.8 x10_4/ul
- Ret (9 h): 9.1%
- WBC (9 h): 91.1 x10_2/uL
- KIDNEY_L (9 h): 0.9 g
- KIDNEY_R (9 h): 0.9 g
- KIDNEY_TOTAL (9 h): 1.8 g
- LIVER (9 h): 7.6 g
- A/G (9 h): 0.9
- ALP (9 h): 1410 IU/L
- ALT (9 h): 42 IU/L
- AST (9 h): 74.6 IU/L
- BUN (9 h): 8.4 mg/dL
- CRE (9 h): 0.2 mg/dL
- Ca (9 h): 10.6 mg/dL
- Cl (9 h): 106.8 meq/L
- DBIL (9 h): 0.006 mg/dL
- GLC (9 h): 165.4 mg/dL
- IP (9 h): 10 mg/dL
- K (9 h): 3.9 meq/L
- LDH (9 h): 63.6 IU/L
- Na (9 h): 142.8 meq/L
- PL (9 h): 136.6 mg/dL
- RALB (9 h): 2.5 g/dL
- TBIL (9 h): 0.052 mg/dL
- TC (9 h): 84.4 mg/dL
- TG (9 h): 41.4 mg/dL
- TP (9 h): 5.4 g/dL
- gamma-GTP (9 h): 1 IU/L
- TERMINAL_BW (24 h): 211.4 g
- APTT (24 h): 16.9 s
- Bas (24 h): 0.2%
- Eos (24 h): 0.8%
- Fbg (24 h): 277.8 mg/dL
- Hb (24 h): 13 g/dL
- Ht (24 h): 40.6%
- Lym (24 h): 80%
- MCH (24 h): 21.7 pg
- MCHC (24 h): 32.2%
- MCV (24 h): 67.3 fL
- Mono (24 h): 2.8%
- Neu (24 h): 15%
- PT (24 h): 15.5 s
- Plat (24 h): 117.6 x10_4/uL
- RBC (24 h): 602.6 x10_4/ul
- Ret (24 h): 9.2%
- WBC (24 h): 102.7 x10_2/uL
- KIDNEY_L (24 h): 0.9 g
- KIDNEY_R (24 h): 0.9 g
- KIDNEY_TOTAL (24 h): 1.9 g
- LIVER (24 h): 10.1 g
- A/G (24 h): 0.8
- ALP (24 h): 1569 IU/L
- ALT (24 h): 44.8 IU/L
- AST (24 h): 71.8 IU/L
- BUN (24 h): 14.6 mg/dL
- CRE (24 h): 0.2 mg/dL
- Ca (24 h): 10.9 mg/dL
- Cl (24 h): 105.4 meq/L
- DBIL (24 h): 0.012 mg/dL
- GLC (24 h): 187 mg/dL
- IP (24 h): 8.5 mg/dL
- K (24 h): 4.2 meq/L
- LDH (24 h): 79.4 IU/L
- Na (24 h): 142.6 meq/L
- PL (24 h): 154 mg/dL
- RALB (24 h): 2.6 g/dL
- TBIL (24 h): 0.034 mg/dL
- TC (24 h): 82.6 mg/dL
- TG (24 h): 108.6 mg/dL
- TP (24 h): 5.6 g/dL
- gamma-GTP (24 h): 1 IU/L
